Columns and labels:
Mena = Mena isoform gene expression by qRT-PCR on FFPE tumors; type: in vivo, mouse
Source text: To test this hypothesis, qRT-PCR analysis was first performed for total Mena (panMena), Mena11a and Mena^INV on formalin-fixed paraffin-embedded (FFPE) tumors from all mouse models. […] As shown in the specific Mena^INV IF, the pattern of Mena^INV expression in PyMT mice was heterogeneous (FIG. 4F), consistent with previous observations (40). […] In addition, there was an inverse correlation for the anti-metastatic Mena11a (p<0.01, […]).
Gene Expression Analysis. Total RNA was extracted from formalin-fixed paraffin-embedded (FFPE) tissues using deparaffinization solution (Qiagen) and RNeasy FFPE Kit (Qiagen), followed by DNase treatment. An RT-PCR method SYBR Green (Qiagen) was used to measure expression levels of total Mena (PanMena), as well as of the specific Mena isoforms, Mena11a and Mena^INV, as described (29), with slight modifications, as detailed in Supplementary Methods. Mena^Calc expression has been previously defined as the expression level of all Mena isoforms combined after subtraction of Mena 11a from PanMena (2).

TMEM [1] = assay: TMEM score by triple-stain immunohistochemistry in mouse breast tumors; type: in vivo
Source text: This hypothesis was investigated in the following breast carcinoma models: (i) transgenic MMTV-PyMT mice bearing spontaneous breast tumors, (ii) FVB mice transplanted orthotopically with tumors from MMTV-PyMT donors, and (iii) two patient-derived xenografts (PDX), HT17 and HT33, developed previously in our laboratory (31). […] Treatment of all groups began at the early carcinoma stage (tumor size of ˜0.3 cm) when there is minimal or absent necrosis. It was decided to work with the early-stage PyMT mouse mammary carcinoma model because it more accurately reflects clinically relevant scenarios where most women present with small tumors of <2 cm (32).
(§1) Drug Administration. The following drugs were administered in mice: Paclitaxel was given at 10 mg/Kg i.v every 5 days for 2 weeks; Doxorubicin was given at 5 mg/Kg i.v. every 5 days for 2 weeks; Cyclophosphamide was given at 120 mg/Kg i.p. only once; Rebastinib was given at 10 mg/Kg per os, every 3-4 days for 4 weeks.
Animals and Animal Procedures. MMTV-PyMT mice were bred in-house at the Albert Einstein College of Medicine (AECOM). Generation of MMTV-PyMT Mena^−/− has been described previously (28). CFP- or Dendra2-labeled mammary carcinoma cells were generated on the FVB background by co-injection of Tg(MMTV-iCRE)1jwp together with Tg(PCAG-loxp-CATstop-loxp-CFP) or Tg(loxP-stop-loxP-PDendra2)jwp plasmids, respectively, by conventional methods in the Albert Einstein Transgenic Mouse Facility. All syngeneic transplantation models were generated through orthotopic transplantation of 1 mm×1 mm tumor chunks, using tumors of 1 cm-diameter from 12-16-week old MMTV-PyMT mena−/− or mena+/+ donor mice into 5-6 week-old FVB recipients. Tumor chunks were implanted on the fourth mammary pad on the left side. The generation of the ER^− HT17 and ER^+ HT33 patient-derived xenografts has been described previously (31). Animal handling and associated procedures were approved by the Institutional Animal Care and Use Committee (IACUC). Additional information is detailed in Supplementary Methods.
Histology and TMEM Immunohistochemistry. Breast tumors and lungs were isolated, rinsed in PBS, fixed in 10% neutral buffered formalin for 48 hours, dehydrated and embedded in paraffin. Sections (5 μm) were stained with H & E or TMEM triple-stain immunohistochemistry, as previously described (3).

TMEM [2] = assay: Intravital imaging of TMEM-dependent vascular permeability (bursting); type: in vivo, mouse
Source text: Paclitaxel Induces TMEM-Dependent Vascular Permeability in Breast Tumors—Given that chemotherapy treatment may affect blood vessel dynamics by inducing angiogenesis (9, 11-13, 35-37), intravital imaging (IVI) (FIG. 2A) was used to investigate whether neoadjuvant paclitaxel induces TMEM-dependent (localized) or TMEM-independent (more universal) blood vessel leakage. […] As also reported previously (1), we never observed any bursting incidents without juxtaposition to a clearly defined TMEM site. Bursting was documented by the accumulation of Dextran-TMR signal over time around an active TMEM site, and no such accumulation was observed away from TMEM (FIGS. 2B-C). The entire time-lapse of these was recorded in videos, respectively. The intensity values from all TMEM-mediated bursting incidents observed in paclitaxel-treated mice were averaged and plotted over the entire time of bursting activity (FIG. 2D), which confirmed the transient nature of paclitaxel-induced TMEM-dependent vascular permeability.
as §1
Intravital Imaging. Intravital imaging was performed using a custom-built two-laser multiphoton microscope, as previously described (57). Mice were anesthetized using 0.75-2.5% isofluorane, depilated. A skin flap procedure, previously developed (58), was performed by exposing the 4th or 5th mammary fat pad. Given the early stage of carcinoma and small tumor size, this necessitated the development of a custom fixturing technique where the exposed tissue was stabilized by affixing the edge of a 10-mm window fitted with an 8-mm clear aperture respectively with cyanoacrylate. The mouse was then placed on a fixturing plate, fitted to the respective window, on the microscope xy stage and imaging was performed in the center of the window away from the glue. The animal was placed in a heated chamber, AirTherm ATX forced air heater (WPI Inc.), maintained at physiologic temperature during the course of imaging, and supplemented with 50-100 uL of PBS per hour via the tail vein catheter. As previously described (1), three milligrams of 155-kDa TMR-dextran (Sigma) were administered via the catheter to visualize the vasculature. All images were reconstructed and analyzed in ImageJ (59), as described in Supplementary Methods.

CC(=O)O[C@H]1C(=O)[C@@]2(C)[C@H]([C@H](OC(=O)c3ccccc3)[C@]3(O)C[C@H](OC(=O)[C@H](O)[C@@H](NC(=O)c4ccccc4)c4ccccc4)C(C)=C1C3(C)C)[C@]1(OC(C)=O)CO[C@@H]1C[C@@H]2O [paclitaxel]
expression of Mena11a (Mena): not that of the anti-metastatic Mena11a
expression of Mena^Calc (Mena; p<0.01): significantly increased
expression of Mena^INV (Mena; p<0.01): significantly increased
expression of PanMena (Mena; p<0.01): significantly increased
TMEM score, fold higher compared to non-treated controls (TMEM [1]; all experimental models tested, 10 mg/Kg every five days, three times, p<0.001): 2- to 3 fold
overall TMEM score (TMEM assembly) (TMEM [1]; single agent vs vehicle, PyMT-transplantation and HT17 xenograft): significant increases
generalized blood vessel leakage of 155-KDa dextran into the extravascular space (TMEM [2]; intravital imaging, paclitaxel-treated mice): did not demonstrate generalized blood vessel leakage
frequency of bursting (TMEM [2]; vs vehicle control): increased
incidence of bursting (at least 1 bursting event in a ~4.5-hour imaging session) (TMEM [2]; vs vehicle control): increased
